Key:
Type in all cases: in vivo
[1] = tested on: giant foxtail (Setaria faberi); assay: Test A preemergence, giant foxtail; conditions: 0 to 100 scale (0 no effect, 100 complete control)
Method in brief: (§1)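 Scores reflect visual plant injury on a 0 (no effect) to 100 (complete control) scale, assessed about ten days after application in the greenhouse. Compounds were delivered in a non-phytotoxic solvent blend with surfactant, either preemergence to soil or postemergence at one- to two-leaf stage.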

[2] = tested on: giant foxtail (Setaria faberi); assay: Test A postemergence, giant foxtail; conditions: 0 to 100 scale (0 no effect, 100 complete control)
Method in brief: as §1

[3] = tested on: umbrella sedge (Cyperus difformis); assay: Test B flooded paddy test, umbrella sedge; conditions: Flood, scale 0 to 100
Method in brief: (§2)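 Compounds were added directly to paddy water over 2-leaf-stage plants in pots flooded 3 cm above soil, water depth maintained. Visual injury scored against controls after 13 to 15 days in greenhouse, 0 (none) to 100 (complete control); dash indicates no result.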

[4] = tested on: large crabgrass (Digitaria sanguinalis); assay: Test A preemergence, large crabgrass; conditions: 0 to 100 scale (0 no effect, 100 complete control)
Method in brief: as §1

[5] = tested on: morningglory (Ipomoea spp.); assay: Test A preemergence, morningglory; conditions: 0 to 100 scale (0 no effect, 100 complete control)
Method in brief: as §1

[6] = tested on: barnyardgrass (Echinochloa crus-galli); assay: Test A postemergence, barnyardgrass; conditions: 0 to 100 scale (0 no effect, 100 complete control)
Method in brief: as §1

[7] = tested on: morningglory (Ipomoea spp.); assay: Test A postemergence, morningglory; conditions: 0 to 100 scale (0 no effect, 100 complete control)
Method in brief: as §1

[8] = tested on: wheat (Triticum aestivum); assay: Test A preemergence, wheat; conditions: 0 to 100 scale (0 no effect, 100 complete control)
Method in brief: as §1

[9] = tested on: pigweed (Amaranthus retroflexus); assay: Test A preemergence, pigweed; conditions: 0 to 100 scale (0 no effect, 100 complete control)
Method in brief: as §1

[10] = tested on: wheat (Triticum aestivum); assay: Test A postemergence, wheat; conditions: 0 to 100 scale (0 no effect, 100 complete control)
Method in brief: as §1

[11] = tested on: large crabgrass (Digitaria sanguinalis); assay: Test A postemergence, large crabgrass; conditions: 0 to 100 scale (0 no effect, 100 complete control)
Method in brief: as §1

[12] = tested on: barnyardgrass (Echinochloa crus-galli); assay: Test B flooded paddy test, barnyardgrass; conditions: Flood
Method in brief: as §2

[13] = tested on: corn (Zea mays); assay: Test A preemergence, corn; conditions: 0 to 100 scale (0 no effect, 100 complete control)
Method in brief: as §1

[14] = tested on: velvetleaf (Abutilon theophrasti); assay: Test A postemergence, velvetleaf; conditions: 0 to 100 scale (0 no effect, 100 complete control)
Method in brief: as §1

[15] = tested on: ducksalad (Heteranthera limosa); assay: Test B flooded paddy test, ducksalad; conditions: Flood, scale 0 to 100
Method in brief: as §2

[16] = tested on: barnyardgrass (Echinochloa crus-galli); assay: Test A preemergence, barnyardgrass; conditions: 0 to 100 scale (0 no effect, 100 complete control)
Method in brief: as §1

[17] = tested on: pigweed (Amaranthus retroflexus); assay: Test A postemergence, pigweed; conditions: 0 to 100 scale (0 no effect, 100 complete control)
Method in brief: as §1

[18] = tested on: rice (Oryza sativa); assay: Test B flooded paddy test, rice; conditions: Flood, scale 0 to 100
Method in brief: as §2

[19] = tested on: corn (Zea mays); assay: Test A postemergence, corn; conditions: 0 to 100 scale (0 no effect, 100 complete control)
Method in brief: as §1

[20] = tested on: velvetleaf (Abutilon theophrasti); assay: Test A preemergence, velvetleaf; conditions: 0 to 100 scale (0 no effect, 100 complete control)
Method in brief: as §1

CC1(C)CC(S(=O)(=O)Cc2c(C(F)(F)F)nc3n(c2=O)CCCCC3)=NO1 [Compound 33]
Plant response rating, Foxtail, Giant ([1]; 125 g ai/ha): 90 | Plant response rating, Foxtail, Giant ([1]; 500 g ai/ha): 100 | Plant response rating, Foxtail, Giant ([2]; 125 g ai/ha): 70 | Plant response rating, Foxtail, Giant ([2]; 500 g ai/ha): 80 | Plant response rating, Sedge, Umbrella ([3]; 31 g ai/ha): 0 | Plant response rating, Sedge, Umbrella ([3]; 62 g ai/ha): 20 | Plant response rating, Sedge, Umbrella ([3]; 125 g ai/ha): 60 | Plant response rating, Sedge, Umbrella ([3]; 250 g ai/ha): 80 | Plant response rating, Crabgrass, Large ([4]; 125 g ai/ha): 90 | Plant response rating, Crabgrass, Large ([4]; 500 g ai/ha): 100 | Plant response rating, Morningglory ([5]; 125 g ai/ha): 20 | Plant response rating, Morningglory ([5]; 500 g ai/ha): 50 | Plant response rating, Barnyardgrass ([6]; 125 g ai/ha): 50 | Plant response rating, Barnyardgrass ([6]; 500 g ai/ha): 80 | Plant response rating, Morningglory ([7]; 125 g ai/ha): 40 | Plant response rating, Morningglory ([7]; 500 g ai/ha): 60 | Plant response rating, Wheat ([8]; 125 g ai/ha): 0 | Plant response rating, Wheat ([8]; 500 g ai/ha): 50 | Plant response rating, Pigweed ([9]; 125 g ai/ha): 10 | Plant response rating, Pigweed ([9]; 500 g ai/ha): 100 | Plant response rating, Wheat ([10]; 125 g ai/ha): 0 | Plant response rating, Wheat ([10]; 500 g ai/ha): 40 | Plant response rating, Crabgrass, Large ([11]; 125 g ai/ha): 50 | Plant response rating, Crabgrass, Large ([11]; 500 g ai/ha): 80 | Plant response rating, Barnyardgrass ([12]; 31 g ai/ha, scale 0 to 100): 0 | Plant response rating, Barnyardgrass ([12]; 62 g ai/ha, scale 0 to 100): 0 | Plant response rating, Barnyardgrass ([12]; 125 g ai/ha, scale 0 to 100): 0 | Plant response rating, Barnyardgrass ([12]; 250 g ai/ha, scale 0 to 100 (0 no effect, 100 complete control)): 35 | Plant response rating, Corn ([13]; 125 g ai/ha): 0 | Plant response rating, Corn ([13]; 500 g ai/ha): 0 | Plant response rating, Velvetleaf ([14]; 125 g ai/ha): 0 | Plant response rating, Velvetleaf ([14]; 500 g ai/ha): 20 | Plant response rating, Ducksalad ([15]; 31 g ai/ha): 0 | Plant response rating, Ducksalad ([15]; 62 g ai/ha): 0 | Plant response rating, Ducksalad ([15]; 125 g ai/ha): 20 | Plant response rating, Ducksalad ([15]; 250 g ai/ha): 50 | Plant response rating, Barnyardgrass ([16]; 125 g ai/ha): 40 | Plant response rating, Barnyardgrass ([16]; 500 g ai/ha): 90 | Plant response rating, Pigweed ([17]; 125 g ai/ha): 20 | Plant response rating, Pigweed ([17]; 500 g ai/ha): 50 | Plant response rating, Rice ([18]; 31 g ai/ha): 0 | Plant response rating, Rice ([18]; 62 g ai/ha): 0 | Plant response rating, Rice ([18]; 125 g ai/ha): 0 | Plant response rating, Rice ([18]; 250 g ai/ha): 25 | Plant response rating, Corn ([19]; 125 g ai/ha): 0 | Plant response rating, Corn ([19]; 500 g ai/ha): 0 | Plant response rating, Velvetleaf ([20]; 125 g ai/ha): 30 | Plant response rating, Velvetleaf ([20]; 500 g ai/ha): 60

Source: patent US20100099561A1, “HETEROBICYCLIC ALKYLTHIO-BRIDGED ISOXAZOLINES” (E.I. DU PONT DE NEMOURS AND COMPANY, priority 2008, published 2010)
